Measurements reported in patent US12624034B2, “Non-covalent modifiers of AKT1 and uses thereof” (Terremoto Biosciences, Inc., priority 2023, dated 2026).
pIC50: −log10 of the molar value. Where two headings read alike, the source gives them in different places.

Assays:
[1] = molecular target: T1, AKT1 E17K (Homo sapiens, UniProt P31749, E17K); experiment: Live cell AKT1 E17K target engagement by NanoBRET competitive probe displacement in HEK293 cells; assay type: binding; details: 2 h at 37° C.
T1 construct: expressed in transfected cells; host or cells: HEK293
T1 sequence (P31749 whole entry E17K): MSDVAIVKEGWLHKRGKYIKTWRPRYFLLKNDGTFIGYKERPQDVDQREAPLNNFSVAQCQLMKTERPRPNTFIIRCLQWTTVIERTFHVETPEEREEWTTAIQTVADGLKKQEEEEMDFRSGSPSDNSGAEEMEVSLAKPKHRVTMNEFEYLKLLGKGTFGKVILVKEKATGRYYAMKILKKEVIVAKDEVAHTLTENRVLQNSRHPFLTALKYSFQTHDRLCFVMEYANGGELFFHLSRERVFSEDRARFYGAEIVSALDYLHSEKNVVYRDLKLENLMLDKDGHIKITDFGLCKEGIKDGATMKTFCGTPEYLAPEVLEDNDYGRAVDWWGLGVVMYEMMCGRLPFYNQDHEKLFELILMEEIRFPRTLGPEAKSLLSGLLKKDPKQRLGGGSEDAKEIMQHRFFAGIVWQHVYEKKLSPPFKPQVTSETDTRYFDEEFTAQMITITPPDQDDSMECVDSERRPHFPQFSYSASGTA
Description: Determining live cell AKT1 E17K, AKT1 WT, and AKT2 target engagement by NanoBRET competitive probe displacement. Live cell target engagement assays were performed as described (Vasta, J. D. et al. Cell Chem Biol 2018, 25(11), 206-214). Briefly, HEK293 cells were transfected with plasmids encoding kinase-NanoLuciferase fusion proteins overnight. Cells were then treated with serial dilutions of compound and an ˜EC50 concentration of fluorescently-tagged ATP-competitive tracer (Promega). After incubation for 2 h at 37° C., luciferase substrate and extracellular luciferase inhibitor were added to all wells, and luminescent intensity at 460 nm and 600 nm were measured on a multimode plate-reader. The ratio of E600/E460 was calculated to give the tracer engagement signal (BRET). IC50 values were calculated by fitting BRET values to a log(inhibitor) vs. response Hill equation.

[2] = molecular target: T2, AKT2 (Homo sapiens, UniProt P31751); experiment: Live cell AKT2 target engagement by NanoBRET competitive probe displacement in HEK293 cells; assay type: binding; details: 2 h at 37° C., read-out: AKT2 IC50
T2 construct: expressed in transfected cells; host or cells: HEK293
T2 sequence (P31751 whole entry): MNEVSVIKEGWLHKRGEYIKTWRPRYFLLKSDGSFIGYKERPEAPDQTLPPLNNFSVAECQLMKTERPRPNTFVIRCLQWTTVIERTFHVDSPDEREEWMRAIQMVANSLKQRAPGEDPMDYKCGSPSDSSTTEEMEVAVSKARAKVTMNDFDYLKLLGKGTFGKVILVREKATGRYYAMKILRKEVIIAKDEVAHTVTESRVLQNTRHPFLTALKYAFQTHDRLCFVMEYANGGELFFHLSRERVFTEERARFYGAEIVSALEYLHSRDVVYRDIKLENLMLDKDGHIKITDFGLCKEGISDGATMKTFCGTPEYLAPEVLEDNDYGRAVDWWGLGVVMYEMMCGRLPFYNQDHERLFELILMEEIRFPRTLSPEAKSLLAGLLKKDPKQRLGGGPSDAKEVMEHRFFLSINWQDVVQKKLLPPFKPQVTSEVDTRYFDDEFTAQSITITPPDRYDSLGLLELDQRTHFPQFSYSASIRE

[3] = molecular target: T3, AKT1 WT (Homo sapiens, UniProt P31749); experiment: Live cell AKT1 WT target engagement by NanoBRET competitive probe displacement in HEK293 cells; assay type: binding; details: 2 h at 37° C., read-out: AKT1 WT IC50
T3 construct: expressed in transfected cells; host or cells: HEK293
T3 sequence (P31749 whole entry): as the sequence (P31749 whole entry E17K) above, with K17E counted along it

[4] = test system: LAPC4 prostate cancer cells, which express the AKT1 E17K allele; experiment: Antiproliferative effects in LAPC4 cells (CellTiter Glo, 72 h); assay type: cell-based; details: read-out: LAPC4 proliferation IC50
Description: Antiproliferative Effects in LAPC4 Cells.
LAPC4 prostate cancer cells (Klein, K. A. et al. Nat Med 1997, 3, 402-408), which express the AKT1 E17K allele, were grown in IMDM media (Hyclone) supplemented with 12% FBS+1% P/S. To assess compound effects on growth, 1,000 cells/well were seeded in 384 well assay plates, incubated with compound dilutions dissolved in DMSO. After 72 h, intracellular ATP content was assessed with CellTiter Glo reagent (Promega) according to the manufacturer's instructions. IC50 values were calculated by fitting luminescence values to a log(inhibitor) vs. response Hill equation.

[5] = NanoBRET live cell target engagement, HEK293 cells
[6] = NanoBRET competitive probe displacement, live HEK293 cells

Compound	pIC50 [1, 5]	pIC50 [2, 5]	pIC50 [3, 5]	pIC50 ([4]; Homo sapiens, LAPC4, 72 h)	pIC50 [1, 6]	pIC50 [2, 6]	pIC50 [3, 6]	pIC50 [4]
C#Cc1ccc(C(=O)N[C@H]2CCc3cc(-n4c(-c5cccnc5N)nc5ccc(-n6cccn6)nc54)ccc32)cn1 [Compound 55, (S)—N-(5-(2-(2-aminopyridin-3-yl)-5-(1H-pyrazol-1-yl)-3H-imidazo[4,5-b]pyridin-3-yl)-2,3-dihydro-1H-inden-1-yl)-6-ethynylnicotinamide]	6.97	7.31	7.79	5.82	–	–	–	–
Nc1ncccc1-c1nc2ccc(-n3nccn3)nc2n1-c1ccc2c(c1)CC[C@@H]2NC(=O)c1cccnc1 [Compound 58, (S)—N-(5-(2-(2-aminopyridin-3-yl)-5-(2H-1,2,3-triazol-2-yl)-3H-imidazo[4,5-b]pyridin-3-yl)-2,3-dihydro-1H-inden-1-yl)nicotinamide]	6.80	5.69	7.51	5.72	–	–	–	–
Cc1ccc(C(=O)N[C@H]2CCc3cc(-n4c(-c5cccnc5N)nc5ccc(-n6nccn6)nc54)ccc32)cn1 [Compound 67]	6.64	6.20	7.82	5.94	–	–	–	–
Nc1ncccc1-c1nc2ccc(-n3nccn3)nc2n1-c1ccc2c(c1)CC(F)[C@@H]2NC(=O)c1ccc(C(F)F)nc1 (some centres unmarked) [Compound 350]	7.03	6.37	7.94	–	–	–	–	6.05
Cn1ccc2c(C(=O)N[C@H]3CCc4cc(-n5c(-c6cccnc6N)nc6ccc(-n7cccn7)nc65)ccc43)[nH]cc2c1=O [Compound 6, (S)—N-(5-(2-(2-aminopyridin-3-yl)-5-(1H-pyrazol-1-yl)-3H-imidazo[4,5-b]pyridin-3-yl)-2,3-dihydro-1H-inden-1-yl)-5-methyl-4-oxo-4,5-dihydro-2H-pyrrolo[3,4-c]pyridine-1-carboxamide]	6.75	6.51	7.97	5.78	–	–	–	–
Nc1ncccc1-c1nc2ccc(-n3cccn3)nc2n1-c1ccc2c(c1)CC[C@@H]2NC(=O)c1ccnc(C(F)F)c1 [Compound 44, (S)—N-(5-(2-(2-aminopyridin-3-yl)-5-(1H-pyrazol-1-yl)-3H-imidazo[4,5-b]pyridin-3-yl)-2,3-dihydro-1H-inden-1-yl)-2-(difluoromethyl)isonicotinamide]	7.13	6.85	8.02	5.85	–	–	–	–
Nc1ncccc1-c1nc2ccc(-n3cccn3)nc2n1-c1ccc2c(c1)CC[C@@H]2NC(=O)c1ccc2oncc2c1 [Compound 20, (S)—N-(5-(2-(2-aminopyridin-3-yl)-5-(1H-pyrazol-1-yl)-3H-imidazo[4,5-b]pyridin-3-yl)-2,3-dihydro-1H-inden-1-yl)benzo[d]isoxazole-5-carboxamide]	6.86	6.15	6.90	5.07	–	–	–	–
Nc1ncccc1-c1nc2ccc(-n3cccn3)nc2n1-c1ccc2c(c1)CC[C@@H]2NC(=O)c1ccc(C2CC2)nc1 [Compound 46, N-[(1S)-5-[2-(2-aminopyridin-3-yl)-5-(pyrazol-1-yl)imidazo[4,5-b]pyridin-3-yl]-2,3-dihydro-1H-inden-1-yl]-6-cyclopropylpyridine-3-carboxamide]	7.82	7.77	8.16	6.48	–	–	–	–
COc1nccc(C(=O)N[C@H]2CCc3cc(-n4c(-c5cccnc5N)nc5ccc(-n6cccn6)nc54)ccc32)c1Cl [Compound 281]	7.12	7.74	8.44	6.02	–	–	–	–
Nc1ncccc1-c1nc2ccc(-n3cccn3)nc2n1-c1ccc2c(c1)CC[C@@H]2n1cc(C2CCC2)nn1 [Compound 287]	6.59	6.20	7.77	5.52	–	–	–	–
Nc1ncccc1-c1nc2ccc(-n3cccn3)nc2n1-c1ccc2c(c1)CC[C@@H]2NC(=O)c1cncs1 [Compound 14, (S)—N-(5-(2-(2-aminopyridin-3-yl)-5-(1H-pyrazol-1-yl)-3H-imidazo[4,5-b]pyridin-3-yl)-2,3-dihydro-1H-inden-1-yl)thiazole-5-carboxamide]	7.64	6.58	7.84	5.89	–	–	–	–
Cc1cc(C(=O)N[C@H]2CCc3cc(-n4c(-c5cccnc5N)nc5ccc(-n6cccn6)nc54)ccc32)cnc1C(F)F [Compound 60, (S)—N-(5-(2-(2-aminopyridin-3-yl)-5-(1H-pyrazol-1-yl)-3H-imidazo[4,5-b]pyridin-3-yl)-2,3-dihydro-1H-inden-1-yl)-6-(difluoromethyl)-5-methylnicotinamide]	7.21	7.50	8.60	6.13	–	–	–	–
Cc1ccc(C(=O)N[C@H]2CCc3cc(-n4c(-c5cccnc5N)nc5ccc(-n6cccn6)nc54)ccc32)cn1 [Compound 26, (S)—N-(5-(2-(2-aminopyridin-3-yl)-5-(1H-pyrazol-1-yl)-3H-imidazo[4,5-b]pyridin-3-yl)-2,3-dihydro-1H-inden-1-yl)-6-methylnicotinamide]	7.57	7.16	8.19	5.97	–	–	–	–
Nc1ncccc1-c1nc2ccc(-n3nccn3)nc2n1-c1ccc2c(c1)CC[C@@H]2NC(=O)c1ccc(C(F)F)nc1 [Compound 65, (S)—N-(5-(2-(2-aminopyridin-3-yl)-5-(2H-1,2,3-triazol-2-yl)-3H-imidazo[4,5-b]pyridin-3-yl)-2,3-dihydro-1H-inden-1-yl)-6-(difluoromethyl)nicotinamide]	6.53	5.97	7.71	6.03	–	–	–	–
CC(C)(C)c1cn([C@H]2CCc3cc(-n4c(-c5cccnc5N)nc5ccc(-n6cccn6)nc54)ccc32)nn1 [Compound 320]	6.33	5.63	7.08	5.65	–	–	–	–

The next lines start with the values.

pIC50 [1, 5]	pIC50 [2, 5]	pIC50 [3, 5]	pIC50 ([4]; Homo sapiens, LAPC4, 72 h)	pIC50 [1, 6]	pIC50 [2, 6]	pIC50 [3, 6]	pIC50 [4]	Compound
–	–	–	5.56	6.71	6.37	7.83	–	Nc1ncccc1-c1nc2ccc(-n3cccn3)nc2n1-c1ccc2c(c1)CC[C@@H]2NC1CCc2cnccc21 (single isomer, unassigned) [Compound 474]
6.09	5.76	7.23	< 5.00	–	–	–	–	Nc1ncccc1-c1nc2ccc(-n3cccn3)nc2n1-c1ccc2c(c1)CC[C@@H]2NC1CCN(C(=O)C2(F)CC2)CC1 [Compound 370]
–	–	–	6.08	6.85	6.71	8.27	–	Nc1ncccc1-c1nc2ccc(-n3cccn3)nc2n1-c1ccc2c(c1)CC(F)[C@@H]2NC1CCc2cnccc21 (single isomer, unassigned) [Compound 482]
–	–	–	5.36	6.31	6.26	7.75	–	Nc1ncccc1-c1nc2ccc(-n3ccc(OCCN4CCOCC4)n3)nc2n1-c1ccc2c(c1)CC[C@@H]2NC1CCN(C(=O)C2CC2)CC1 [Compound 505]
6.31	6.39	7.61	5.37	–	–	–	–	Nc1ncccc1-c1nc2ccc(-n3cccn3)nc2n1-c1ccc2c(c1)CC[C@@H]2NC(=O)c1ccnc2c1CCCO2 [Compound 361]
7.32	5.89	7.81	5.98	–	–	–	–	COc1ccc(C(=O)N[C@H]2CCc3cc(-n4c(-c5cccnc5N)nc5ccc(-n6nccn6)nc54)ccc32)cn1 [Compound 371]
< 6.00	5.09	6.32	< 5.00	–	–	–	–	Nc1ncccc1-c1nc2ccc(-n3cccn3)nc2n1-c1ccc2c(c1)CC[C@@H]2NC1CCN(C(=O)c2ccncc2)CC1 [Compound 360]
6.13	5.60	7.13	5.20	–	–	–	–	Nc1ncccc1-c1nc2ccc(-n3ccc(F)n3)nc2n1-c1ccc2c(c1)CC[C@@H]2NC1CCN(c2ccccn2)CC1 [Compound 367]
< 6.00	5.26	7.38	< 5.00	–	–	–	–	Cc1nc(C(F)F)ccc1C(=O)N[C@H]1CCc2cc(-n3c(-c4cccnc4N)nc4ccc(-n5nccn5)nc43)ccc21 [Compound 392]
< 6.00	5.97	7.28	< 5.00	–	–	–	–	Nc1ncccc1-c1nc2ccc(-n3cccn3)nc2n1-c1ccc2c(c1)CC[C@@H]2NC(=O)c1ccnc2c1OCCO2 [Compound 356]
6.59	5.95	7.68	5.63	–	–	–	–	COc1cc(C(=O)N[C@H]2CCc3cc(-n4c(-c5cccnc5N)nc5ccc(-n6nccn6)nc54)ccc32)cnc1C(F)F [Compound 364]
